Consider one compound from patent publication US20220401564A1 (DANA-FARBER CANCER INSTITUTE, INC., priority 2019, published 2022).

This experiment deals with T1, HDAC6 (Homo sapiens, UniProt Q9UBN7).
T1 sequence (Q9UBN7 1-1215): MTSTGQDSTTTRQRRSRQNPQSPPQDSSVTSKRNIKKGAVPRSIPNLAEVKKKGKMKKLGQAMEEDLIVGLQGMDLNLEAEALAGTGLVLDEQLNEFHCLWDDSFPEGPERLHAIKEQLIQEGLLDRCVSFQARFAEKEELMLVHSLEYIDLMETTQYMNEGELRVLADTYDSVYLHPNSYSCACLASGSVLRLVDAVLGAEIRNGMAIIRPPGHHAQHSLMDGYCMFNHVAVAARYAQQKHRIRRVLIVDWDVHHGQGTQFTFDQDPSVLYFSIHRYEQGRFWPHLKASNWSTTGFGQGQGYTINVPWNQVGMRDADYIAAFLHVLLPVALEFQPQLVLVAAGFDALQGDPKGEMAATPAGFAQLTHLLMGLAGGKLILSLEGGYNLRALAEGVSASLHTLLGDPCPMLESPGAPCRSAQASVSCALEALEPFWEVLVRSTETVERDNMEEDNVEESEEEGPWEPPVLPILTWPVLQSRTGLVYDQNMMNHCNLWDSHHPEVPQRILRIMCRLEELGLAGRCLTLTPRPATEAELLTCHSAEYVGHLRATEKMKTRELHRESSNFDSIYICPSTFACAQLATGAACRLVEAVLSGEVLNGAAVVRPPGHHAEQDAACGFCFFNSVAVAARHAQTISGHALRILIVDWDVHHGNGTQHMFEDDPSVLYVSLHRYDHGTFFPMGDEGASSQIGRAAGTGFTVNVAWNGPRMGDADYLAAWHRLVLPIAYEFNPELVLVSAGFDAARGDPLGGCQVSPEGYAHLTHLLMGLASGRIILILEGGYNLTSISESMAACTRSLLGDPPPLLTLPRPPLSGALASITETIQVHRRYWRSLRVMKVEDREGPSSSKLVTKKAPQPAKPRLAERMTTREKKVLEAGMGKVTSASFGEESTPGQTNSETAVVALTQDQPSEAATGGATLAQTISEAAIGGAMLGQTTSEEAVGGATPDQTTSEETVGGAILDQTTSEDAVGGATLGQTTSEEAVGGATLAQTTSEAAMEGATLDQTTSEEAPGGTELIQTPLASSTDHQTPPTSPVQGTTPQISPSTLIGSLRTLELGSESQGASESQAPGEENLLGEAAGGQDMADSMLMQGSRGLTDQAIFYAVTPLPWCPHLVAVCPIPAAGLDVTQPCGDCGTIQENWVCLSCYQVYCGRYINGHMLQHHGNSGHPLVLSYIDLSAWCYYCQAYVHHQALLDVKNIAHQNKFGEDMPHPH
As to the kind of experiment: Change in cellular protein abundance (TMT proteomics) in Kelly cells. The experiment is classed as cell-based. Further details: relative change in relative protein abundance with treatment of Kelly cells; endogenous in cells; host or cells: Kelly cells. Conditions: FIG. 3A.

“Also recorded” adds a separate entry of the source.

Turning to `Cc1ncsc1-c1ccc(CNC(=O)[C@@H]2C[C@@H](O)CN2C(=O)[C@@H](NC(=O)C2(F)CC2)C(C)(C)C)c(OCCCCCN(CCc2c[nH]c3ccccc23)Cc2ccc(/C=C/C(=O)NO)cc2)c1` [Compound 7, (2S,4R)—N-(2-((5-((2-(1H-indol-3-yl)ethyl)(4-((E)-3-(hydroxyamino)-3-oxoprop-1-en-1-yl)benzyl)amino)pentyl)oxy)-4-(4-methylthiazol-5-yl)benzyl)-1-((S)-2-(1-fluorocyclopropane-1-carboxamido)-3,3-dimethylbutanoyl)-4-hydroxypyrrolidine-2-carboxamide], the “HDAC6 protein levels, relative protein abundance compared to DMSO control” value is “promote degradation; also recorded: significant and selective reduction”.
